Measurements published in patent publication US5032398A, “Selective modification of the catalytic subunit of pertussis toxin” (priority 1986, dated 1991).

Experiments:
pertussis toxin [1] = target: T1, pertussis toxin (Bordetella pertussis, UniProt P04977); assay: NADase activity of pertussis toxin after activation and treatment with alkylating reagent (Example One); type: biochemical
Source text: The ADP-ribosylating activity of the pertussis toxin can be detected as a nicotinamide-adenine dinucleotide-glycohydrolase (NADase) activity, which can be conveniently assayed through the use of [nicotinamide-^14 C] or [nicotinamide-^3 H] NAD. NAD consists of ADP-ribose linked to nicotinimide, and thus the extent of the release of ADP-ribose from NAD is an indication of the ability of the toxin to cause ill effects. In conducting this assay of the hydrolysis of labelled NAD, ion-exchange column chromatography was employed to resolve the product from the substrate according to the method described by Moss et al., J. Biol. Chem. 258, 11879 (1983) which is incorporated herein by reference. However, several modifications to this method were employed. First, a QAE-Sephadex resin was employed, as was a [nicotinamide-^3 H] NAD. Specifically, a 2 ml QAE-Sephadex column was first washed with 10 ml 1NHCl, followed by 10 ml H2 O, 20 ml 0.5M Tris-HCl pH 7.0, and 40 ml H2 O. [^3 H] NAD was applied, and the column washed with 20 ml water to elute impurities. Purified [^3 H] NAD was eluted with 0.25M NaCl, and stored in small aliquots at -70° C. The purified [^3 H] NAD contributed 50 mM NaCl (final concentration) to the NADase assays.
Before the end of the reaction, 2 ml QAE-Sephadex columns were treated with 10 ml 0.1M imidazole-HCl pH 7.0 with 1.0M NaCl, followed by 40 ml water. The NADase reaction (in 100 μl) was terminated by adding 0.85 ml of ice-cold water, and the entire 0.95 ml was pipetted into a treated QAE column. The labelled nicotinamide was then eluted with 3 ml of water directly into a scintillation vial and counted. The absorbed labelled NAD was then eluted into radioactive waste with 10 ml 0.1M imidazole-HCl pH 7.0 with 1.0M NaCl, and the column stored partially immersed in a water bath until the next assay.
In order to determine if any active toxin remained after the inactivation, a large excess of sulfhydryl reductant was added to each tube to scavenge unreacted sulfhydryl reagent. The NADase activity of the preparation was then measured. The three incubations were performed under a nitrogen atmosphere using degassed solutions to prevent oxidation of sulfhydryl groups which would prevent the sulfhydryl reagent from modifying the sulfhydryl group.
The pertussis toxin in the Examples comprised 50 μg of the toxin in a 500 μl solution of 10 mM sodium phosphate-50 mM sodium chloride-water solution having a pH of 7. The enzymatic activity was detected as the hydrolysis of nicotinamide labelled NAD and ion-exchange column chromatography to resolve the product from the substrate. Unless otherwise noted, the assay was initiated by adding 0.5 to 2.5 μg of the toxin to a reaction mixture for a final volume of 100 μl. The NADase reaction was terminated by adding 0.85 ml of ice-cold water. The entire 0.95 ml was then pipetted into a QAE-Sephadex column (chloride form) and the labelled nicotinamide eluted with 3 ml of water directly into a scintillation vial and counted. […] One unit of NADase activity is defined as 1 pmol NAD hydrolyzed per hour.
One-half microgram of pertussis toxin was incubated for thirty minutes at […] in 100 mM Tris-HCl (pH 8.0), with or without activators, in a volume of 50 μl. When present, ATP and pyrophosphate were present in a concentration of 2 mM, CHAPS at 2 weight percent, and DTT in a concentration of either 2 mM (trial 1) or 1 mM (trial 2). 10 μl of water with or without iodoacetate or N-ethylmaleimide was then added and a second incubation conducted at 30° C. for either thirty minutes (trial 1) or fifteen minutes (trial 2). After this incubation, 10 μl of 200 mM DTT was added to each tube, and the tubes were incubated for thirty (trial 1) or sixty minutes (trial 2) on ice to scavenge the iodoacetate or N-ethylmaleimide.

pertussis toxin [2] = target: T1, pertussis toxin; assay: Inactivation of NADase activity by sulfhydryl reagents, 6 minutes or 18 hours at 0-4° (Example Eight); type: biochemical
Experimental: Pertussis toxin was incubated at 37° C. for fifteen minutes as described in Example Six, and then a second incubation was begun by adding 10 μl buffer A with or without 12.5 mM iodoacetate, mixing the contents of the tube and lowering the temperature to 30° C. After fifteen minutes, the tubes were shifted to an ice bath for ten minutes. A third incubation was then begun by adding 10 μl buffer A containing 200 mM DTT to those tubes containing iodoacetate to scavenge the iodoacetate. To those tubes not containing iodoacetate during the second incubation, a mixture of 200 mM DTT and 12.5 mM iodoacetate in buffer A, previously incubated for an hour on ice, was added. The third incubation was continued for one hour on ice.
The contents of each tube were then assayed for NADase activity by adding 40 μl of a reaction mix consisting of buffer A containing carbon-14 labelled NAD (final concentration in the 100 μl final volume was 25 μM), and 50 mM sodium chloride. Different reaction mixtures with various additions were used, so that in all tubes the final concentration of ATP was 1 mM and CHAPS was 1 weight percent. The assay was conducted at 37° C. for sixty minutes, and the released labelled nicotinimide was isolated and counted. The iced controls were formed by incubating pertussis toxin (1 μg) on ice in 10 mM sodium phosphate (pH 7) and 50 mM sodium chloride during the first three incubations. […] The first three incubations were done under a nitrogen atmosphere using degassed conditions, and the second and third incubations were done under subdued light.
The procedure followed in Example Seven was repeated for this study, except that N-ethylmaleimide, chloroacetamide or chloroacetate were substituted for iodoacetate. After the 30° C. incubation, the tubes were either incubated for six minutes or eighteen hours at 0°-4° C. before the 10 μl of 200 mM DTT (with or without quenched reagent) was added. Those tubes receiving the DTT after six minutes were incubated for nineteen hours at 0°-4° C. prior to the NADase assay. Those receiving the DTT after eighteen hours were incubated with DTT for one hour, as in Example Seven. The tubes were then assayed for NADase activity at the same time.

[3] = first incubation: ATP, CHAPS, 18 hours at 0-4°
[4] = first incubation: ATP, DTT, CHAPS, 6 minutes at 0-4°
[5] = first incubation: ATP, DTT, CHAPS, 18 hours at 0-4°
[6] = first incubation: CHAPS, 18 hours at 0-4°
[7] = first incubation: DTT, CHAPS, 18 hours at 0-4°
[8] = first incubation: none, 15 minutes at 30° C. followed by 18 hours at 0-4°

T1 sequence (P04977 35-269 limits assumed): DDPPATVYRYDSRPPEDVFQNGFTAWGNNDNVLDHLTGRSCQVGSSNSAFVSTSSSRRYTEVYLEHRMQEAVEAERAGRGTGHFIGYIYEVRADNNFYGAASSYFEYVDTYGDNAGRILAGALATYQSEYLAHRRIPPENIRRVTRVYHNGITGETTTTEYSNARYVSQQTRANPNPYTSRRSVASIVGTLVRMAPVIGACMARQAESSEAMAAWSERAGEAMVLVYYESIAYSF

Q: Which results are given for O=C(O)CI [iodoacetate]?
A: NADase activity (%) of the activity of toxin treated the same way without alkylating agent (pertussis toxin [1]; first incubation: DTT 1 mM, CHAPS 2%, ATP 2 mM, Experiment #2, second incubation 15 min at 30° C, 25 μM NAD): 3%; NADase activity (%) of the activity of toxin treated the same way without alkylating agent (pertussis toxin [1]; first incubation: DTT 1 mM, CHAPS 2%, pyrophosphate 2 mM, Experiment #2, second incubation 15 min at 30° C, 25 μM NAD): 31%; NADase activity (%) of the activity of toxin treated the same way without alkylating agent (pertussis toxin [1]; first incubation: DTT 2 mM, CHAPS 2%, ATP 2 mM, Experiment #1, second incubation 30 min at 30° C, 125 μM NAD): 4%; NADase activity (%) of the activity of toxin treated the same way without alkylating agent (pertussis toxin [1]; first incubation: DTT 2 mM, CHAPS 2%, pyrophosphate 2 mM, Experiment #1, second incubation 30 min at 30° C, 125 μM NAD): 28%; NADase activity (%) of the activity of toxin treated the same way without alkylating agent (pertussis toxin [1]; first incubation: none, Experiment #1, second incubation 30 min at 30° C, 125 μM NAD): 62%; NADase activity (%) of the activity of toxin treated the same way without alkylating agent (pertussis toxin [1]; first incubation: none, Experiment #2, second incubation 15 min at 30° C, 25 μM NAD): 87%; NADase activity (pertussis toxin [2]; [3]): 110 pmol per μg per hour; percent of activity with no addition to second incubation (pertussis toxin [2]; [3]): 85%; NADase activity (pertussis toxin [2]; [4]): 17 pmol per μg per hour; percent of activity with no addition to second incubation (pertussis toxin [2]; [4]): 17%; NADase activity (pertussis toxin [2]; [5]): 3 pmol per μg per hour; percent of activity with no addition to second incubation (pertussis toxin [2]; [5]): 3%; NADase activity (pertussis toxin [2]; [6]): 171 pmol per μg per hour; percent of activity with no addition to second incubation (pertussis toxin [2]; [6]): 92%; NADase activity (pertussis toxin [2]; [7]): 151 pmol per μg per hour; percent of activity with no addition to second incubation (pertussis toxin [2]; [7]): 79%; NADase activity (pertussis toxin [2]; [8]): 59 pmol per μg per hour; percent of activity with no addition to second incubation (pertussis toxin [2]; [8]): 116%
